Assay: pH in water of pH regulators before and after heat treatment
Assay type: physicochemical
Conditions: for pH in water after heat treatment: after heat treatment at 150° C. for 15 min

Structure (SMILES) | pH in water after heat treatment | pH in water before heat treatment
O=C([O-])[O-].[Mg+2] [MgCO3] | 7 | 6
O=C([O-])[O-].[Na+].[Na+] [Na2CO3, sodium carbonate] | 10 | 10
O=P([O-])([O-])O.[Na+].[Na+] [Na2HPO4 2H2O, disodium hydrogen phosphate] | 6 | 6
O.O.O.O.O.O.O.O.O.O.O.O.O=P([O-])([O-])[O-].[Na+].[Na+].[Na+] [Na3PO4 12H2O] | 10 | 10
O=C([O-])O.[Na+] [NaHCO3, sodium bicarbonate] | 10 | 7

Reference: US20240299304A1, “A METHOD FOR THE PRODUCTION OF GASTRORETENTIVE COMPACT MATRICES FOR THE CONTROLLED RELEASE OF ACTIVE SUBSTANCES AND COMPACT MATRICES THUS OBTAINED” (UNIVERSITA DEGLI STUDI DI GENOVA, priority 2021, published 2024)
